Laboratory results from publication PMC6701825, “Antiproliferative and Antimigratory Effects of a Novel YAP–TEAD Interaction Inhibitor Identified Using in Silico Molecular Docking” (Journal of Medicinal Chemistry, 2019).

Columns and labels:
[1] = tested on: TEAD-dependent transcriptional activity; test: 8xTEAD secreted nanoluciferase (TEAD-NLUC) reporter assay in HeLa cells; format: cell-based, human; details: HeLa TEAD-NLUC, 6 h
Excerpt: The shortlisted sets of 16 compounds were first assayed for their ability to inhibit TEAD-dependent transcriptional activity in HeLa cells that had been transduced with a recombinant lentiviral vector expressing secreted bioluminescent nanoluciferase (NLUC) reporter gene enzyme, which is expressed under the control of a promoter region containing eight TEAD DNA-binding elements (TEAD-NLUC).
Compounds were initially screened for ability to inhibit TEAD-dependent transcriptional activity in HeLa cells transduced with a lentiviral vector expressing secreted nanoluciferase under the control of multimerized TEAD consensus elements (5′-[…]-3′). 8xTEAD NanoLuc was generated by cloning the 8xTEAD promoter from the 8xTEAD-Luc plasmid (Addgene #34615) into the pENTR gateway entry vector (Promega). This was then recombined into pLNT-sec-Nluc-2A-eGFP destination vector (supplied by Tristan McKay; University of Manchester). Lentiviruses were generated by Viafect-mediated co-transfection of pLNT8x-TEAD-sec-Nluc-2A-eGFP, Δ8.9, and VSV-G vectors into HEK293T cells (ATCC), and lentiviral-containing culture supernatants were used to infect HeLa cells in the presence of 6 μg/mL polybrene. For compound screening, 8xTEAD NanoLuc-transduced HeLa cells were seeded at 2 × 10^4 cells/well in 96-well plates. After 48 h, the cells were washed in PBS and incubated with test compounds at the indicated concentrations for 2 h. The cells were washed again in PBS and incubated with the compound for a further 4 h. Conditioned culture medium (50 μL) was assayed for secreted nanoluciferase activity using NanoGlo activity assays kit (Promega) and a Glomax Discover luminometer.

CTGF promoter [2] = test: CTGF-luciferase reporter in HeLa cells; format: cell-based, human; details: 6 h, indicated concentrations
Excerpt: (§1) Activation of TEAD transcription factors in response to YAP binding induces the expression of many genes that encode proteins known to be involved in promoting cell proliferation and migration (see Supplement Figure 14). The best characterized TEAD target genes associated with the promotion of cell proliferation and migration are CCN1 and CTGF.[39],[59],[60] […] We therefore tested whether CPD3 inhibited the promoter activity of known TEAD target genes, CCN1 and CTGF, in the HeLa transformed cell line and primary rat VSMCs (RaVSMCs). Cells were transfected with plasmids expressing bioluminescent firefly luciferase reporter genes under the control of either the CCN1 or CTGF promoter regions. […] As both CCN1 and CTGF are classical TEAD target genes, this is consistent with the inhibition of TEAD activity by CPD3.
TNT1-minP reporter containing the Troponin-T minimal promoter was generated by digesting 8xGTIIC-luciferase plasmid (Addgene #34615) with Kpn1 and BglII to remove the TEAD elements, followed by blunt end re-ligation. A 2.177 kb fragment of the human CCN1 promoter containing two proximal TEAD elements (Hg19;chr1:86044316–chr1:86046493) was described previously[39] and cloned into pGL4-luciferase (Promega). […]

CTGF promoter [3] = test: CTGF-luciferase reporter in RaVSMCs; format: cell-based, rat
Excerpt: as §1
Figure 9 Compound 3.1 inhibits TEAD target gene expression, cell proliferation, and cell migration in RaVSMCs. […] Total RNA was analyzed for mRNA levels of TEAD-target genes (D) or constitutive housekeeping genes (E) by qRT-PCR. […] Total cell lysates were analyzed for CCN1 protein expression by Western blotting (F). […] RaVSMCs (I) or HuVSMC (J) were treated with indicated concentrations of compound 3.1 and cell migration quantified using IncuCyte real time migration assay (n = 4). […]

HeLa cells = test: EdU proliferation assay in HeLa cells; format: cell-based, human; details: for cell proliferation (EdU incorporation): 18 h then 6 h 10 μM EdU
Description: Cell proliferation was measured using the Click-iT EdU 488 assay (Sigma-Aldrich). Briefly, the cells were treated with indicated concentrations of compounds for 24 h with the last 4 h being in the presence of 10 μM EdU. The cells were fixed in 4% formaldehyde and stained for EdU incorporation, following the kit’s standard protocol. The cells were counterstained with Hoechst 33342 nucleic acid for 20 min. Fluorescent images of at least three fields of view per well were counted using ImageJ software. Real-time analysis of cell migration was performed using an IncuCyte ZOOM live cell imaging system (Essen BioScience) according to the manufacturer’s instructions. Briefly, the cells were seeded (1.2 × 10^4 cells/well for HeLa cells, 1.5 × 10^4 cells/well for RaVSMCs, and 1 × 10^4 cells/well) into ImageLock 96-well plates. After 36 h, the cells were pretreated overnight with indicated concentrations of compounds. The wells were scratched using a WoundMaker tool, and the media were replaced containing test compounds. Phase contrast images of cell migration into the wounded area were acquired hourly for 24 h. Relative wound confluence was calculated using the Cell Migration Image analysis module of the IncuCyte ZOOM software.

SMILES | concentration at which TEAD-dependent NLUC secretion was significantly inhibited [1] [µM] | IC50 ([1]; Homo sapiens, HeLa, read-out: IC50, TEAD-dependent NLUC secretion) [µM] | CTGF-luciferase reporter gene activity (CTGF promoter [2]) | CTGF-luciferase reporter gene activity (CTGF promoter [3]; 6 h, indicated concentrations) | cell proliferation (EdU incorporation) (HeLa cells) | IC50 (CTGF promoter [3]; Rattus norvegicus, 6 hr, read-out: IC50, CTGF-LUC (as printed in Figure 9C)) [µM] | doses at which EdU incorporation was significantly inhibited (HeLa cells)
Cc1ccc2c(c1)c1c3n2CCN(CC(O)CN2CCN(C(=O)c4ccco4)CC2)C3CCC1 (stereo not shown) [CPD3] | 60 | > 110 | strong and significant dose-dependent inhibition | strong and significant dose-dependent inhibition | dose-dependently inhibited cell proliferation | – | –
Cc1ccc2c(c1)c1c3n2CCNC3CCC1 (stereo not shown) [CPD3.1] | 20 | – | dose-dependent inhibition | – | dose-dependently inhibited HeLa cell proliferation | 58 | above 40 μM
